Data as given in the supplement of paper PMC10627819.

Key:
B. subtilis 168 = assay: Bliss interaction score (quartile over a dose matrix) (fitness difference); higher = more antagonism (negative = synergy)
In short: (§1)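 The Bliss score takes observed fitness and subtracts the expected fitness, calculated as a product of single-drug fitness values. Those single-drug values were inferred from the combination data. Fitness is OD595 at entry into stationary phase divided by the plate's robust no-drug mean, capped at 1, and the score is summarised by quartiles across technical, biological and donor/recipient replicates.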

S. aureus DSM 20231 [1] = assay: as above
In short: as §1

S. aureus Newman [2] = assay: as above
In short: as §1

S. pneumoniae D39V [3] = assay: as above
In short: as §1

S. aureus DSM 20231 [4] = assay: fitness (endpoint OD595 vs no drug) (fraction); higher = more growth
In short: (§2)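 Fitness was measured as bacterial growth in 384-well plates inoculated at OD595 0.01 (30 µl, or 55 µl for S. pneumoniae). Media were TSB, LB Lennox or CY, at 37 °C. OD595 was read every 30 min for 14 h and background-subtracted against the first reading. Fitness is OD595 at the transition into stationary phase divided by the robust mean of no-drug control wells, capped at 1.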

S. aureus Newman [5] = assay: as above
In short: as §2

S. pneumoniae D39V [6] = assay: as above
In short: as §2
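For Bliss interaction score (quartile over a dose matrix) in this document: first quartile when negative (synergy) and third quartile when positive (antagonism).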
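For fitness (endpoint OD595 vs no drug) in this document: OD595 on entry to stationary phase over no-drug wells; at most 1.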

CO/N=C(\C(=O)N[C@@H]1C(=O)N2C(C(=O)[O-])=C(C[N+]3(C)CCCC3)CS[C@H]12)c1csc(N)n1 [Cefepime] + CN[C@H](CC(C)C)C(=O)N[C@H]1C(=O)N[C@@H](CC(N)=O)C(=O)N[C@H]2C(=O)N[C@H]3C(=O)N[C@H](C(=O)N[C@H](C(=O)O)c4cc(O)cc(O)c4-c4cc3ccc4O)[C@H](O)c3ccc(c(Cl)c3)Oc3cc2cc(c3O[C@@H]2O[C@H](CO)[C@@H](O)[C@H](O)[C@H]2O[C@H]2C[C@](C)(N)[C@H](O)[C@H](C)O2)Oc2ccc(cc2Cl)[C@H]1O [Vancomycin]
Conditions | Bliss interaction score
B. subtilis 168 | -0.154
S. aureus DSM 20231 [1] | 0.0422
S. aureus Newman [2] | -0.0634
S. pneumoniae D39V [3] | -0.121

Conditions | fitness
S. aureus DSM 20231 [4], first compound 0.125 µg/mL, partner 0.1875 µg/mL | 0.872
S. aureus DSM 20231 [4], first compound 0.125 µg/mL, partner 0.375 µg/mL | 0.868
S. aureus DSM 20231 [4], first compound 0.125 µg/mL, partner 0.75 µg/mL | 0.936
S. aureus DSM 20231 [4], first compound 0.25 µg/mL, partner 0.1875 µg/mL | 0.917
S. aureus DSM 20231 [4], first compound 0.25 µg/mL, partner 0.375 µg/mL | 0.902
S. aureus DSM 20231 [4], first compound 0.25 µg/mL, partner 0.75 µg/mL | 0.885
S. aureus DSM 20231 [4], first compound 0.5 µg/mL, partner 0.1875 µg/mL | 0.883
S. aureus DSM 20231 [4], first compound 0.5 µg/mL, partner 0.375 µg/mL | 0.864
S. aureus DSM 20231 [4], first compound 0.5 µg/mL, partner 0.75 µg/mL | 0.906
S. aureus Newman [5], first compound 0.125 µg/mL, partner 0.1875 µg/mL | 0.945
S. aureus Newman [5], first compound 0.125 µg/mL, partner 0.375 µg/mL | 0.946
S. aureus Newman [5], first compound 0.125 µg/mL, partner 0.75 µg/mL | 0.922
S. aureus Newman [5], first compound 0.25 µg/mL, partner 0.1875 µg/mL | 0.879
S. aureus Newman [5], first compound 0.25 µg/mL, partner 0.375 µg/mL | 0.867
S. aureus Newman [5], first compound 0.25 µg/mL, partner 0.75 µg/mL | 0.858
S. aureus Newman [5], first compound 0.5 µg/mL, partner 0.1875 µg/mL | 0.791
S. aureus Newman [5], first compound 0.5 µg/mL, partner 0.375 µg/mL | 0.802
S. aureus Newman [5], first compound 0.5 µg/mL, partner 0.75 µg/mL | 0.774
S. pneumoniae D39V [6], first compound 0.007 µg/mL, partner 0.125 µg/mL | 0.992
S. pneumoniae D39V [6], first compound 0.007 µg/mL, partner 0.25 µg/mL | 0.807
S. pneumoniae D39V [6], first compound 0.007 µg/mL, partner 0.5 µg/mL | 0.0222
S. pneumoniae D39V [6], first compound 0.0078 µg/mL, partner 0.03125 µg/mL | 0.977
S. pneumoniae D39V [6], first compound 0.0078 µg/mL, partner 0.0625 µg/mL | 0.884
S. pneumoniae D39V [6], first compound 0.0078 µg/mL, partner 0.125 µg/mL | 0.694
S. pneumoniae D39V [6], first compound 0.014 µg/mL, partner 0.125 µg/mL | 0.944
S. pneumoniae D39V [6], first compound 0.014 µg/mL, partner 0.5 µg/mL | 0.029
S. pneumoniae D39V [6], first compound 0.0155 µg/mL, partner 0.03125 µg/mL | 0.879
S. pneumoniae D39V [6], first compound 0.028 µg/mL, partner 0.125 µg/mL | 0.585
S. pneumoniae D39V [6], first compound 0.028 µg/mL, partner 0.5 µg/mL | 0.0343
S. pneumoniae D39V [6], first compound 0.031 µg/mL, partner 0.0625 µg/mL | 0.308
S. pneumoniae D39V [6], first compound 0.031 µg/mL, partner 0.125 µg/mL | 0.269

CO/N=C(\C(=O)N[C@@H]1C(=O)N2C(C(=O)[O-])=C(C[N+]3(C)CCCC3)CS[C@H]12)c1csc(N)n1 [Cefepime] + COc1c(N2C[C@@H]3CCCN[C@@H]3C2)c(F)cc2c(=O)c(C(=O)O)cn(C3CC3)c12 [Moxifloxacin]
Conditions | Bliss interaction score
B. subtilis 168 | 0.0325
S. aureus DSM 20231 [1] | -0.101
S. aureus Newman [2] | 0.0732
S. pneumoniae D39V [3] | -0.0484

Conditions | fitness
S. aureus DSM 20231 [4], first compound 0.125 µg/mL, partner 0.0075 µg/mL | 0.664
S. aureus DSM 20231 [4], first compound 0.125 µg/mL, partner 0.015 µg/mL | 0.681
S. aureus DSM 20231 [4], first compound 0.125 µg/mL, partner 0.03 µg/mL | 0.616
S. aureus DSM 20231 [4], first compound 0.25 µg/mL, partner 0.0075 µg/mL | 0.69
S. aureus DSM 20231 [4], first compound 0.25 µg/mL, partner 0.015 µg/mL | 0.682
S. aureus DSM 20231 [4], first compound 0.25 µg/mL, partner 0.03 µg/mL | 0.592
S. aureus DSM 20231 [4], first compound 0.5 µg/mL, partner 0.0075 µg/mL | 0.766
S. aureus DSM 20231 [4], first compound 0.5 µg/mL, partner 0.015 µg/mL | 0.641
S. aureus DSM 20231 [4], first compound 0.5 µg/mL, partner 0.03 µg/mL | 0.565
S. aureus Newman [5], first compound 0.125 µg/mL, partner 0.0075 µg/mL | 0.748
S. aureus Newman [5], first compound 0.125 µg/mL, partner 0.015 µg/mL | 0.616
S. aureus Newman [5], first compound 0.25 µg/mL, partner 0.0075 µg/mL | 0.738
S. aureus Newman [5], first compound 0.25 µg/mL, partner 0.015 µg/mL | 0.615
S. aureus Newman [5], first compound 0.5 µg/mL, partner 0.0075 µg/mL | 0.695
S. pneumoniae D39V [6], first compound 0.007 µg/mL, partner 0.0312 µg/mL | 0.146
S. pneumoniae D39V [6], first compound 0.007 µg/mL, partner 0.0625 µg/mL | 0.0456
S. pneumoniae D39V [6], first compound 0.007 µg/mL, partner 0.125 µg/mL | 0.0274
S. pneumoniae D39V [6], first compound 0.0078 µg/mL, partner 0.005 µg/mL | ≥ 1
S. pneumoniae D39V [6], first compound 0.0078 µg/mL, partner 0.01 µg/mL | 0.981
S. pneumoniae D39V [6], first compound 0.0078 µg/mL, partner 0.02 µg/mL | ≥ 1
S. pneumoniae D39V [6], first compound 0.014 µg/mL, partner 0.0312 µg/mL | 0.137
S. pneumoniae D39V [6], first compound 0.014 µg/mL, partner 0.0625 µg/mL | 0.0527
S. pneumoniae D39V [6], first compound 0.014 µg/mL, partner 0.125 µg/mL | 0.0539
S. pneumoniae D39V [6], first compound 0.0155 µg/mL, partner 0.005 µg/mL | 0.987
S. pneumoniae D39V [6], first compound 0.0155 µg/mL, partner 0.01 µg/mL | 0.971
S. pneumoniae D39V [6], first compound 0.0155 µg/mL, partner 0.02 µg/mL | ≥ 1
S. pneumoniae D39V [6], first compound 0.028 µg/mL, partner 0.0312 µg/mL | 0.077
S. pneumoniae D39V [6], first compound 0.028 µg/mL, partner 0.0625 µg/mL | 0.0286
S. pneumoniae D39V [6], first compound 0.028 µg/mL, partner 0.125 µg/mL | 0.0219
S. pneumoniae D39V [6], first compound 0.031 µg/mL, partner 0.02 µg/mL | 0.805

fitness, S. aureus DSM 20231 [4], one replicate
Conditions | first compound 0.125 µg/mL | first compound 0.25 µg/mL | first compound 0.5 µg/mL
partner 0.06 µg/mL | 0.645 | 0.622 | 0.579
partner 0.12 µg/mL | 0.469 | 0.521 | 0.482

CO/N=C(\C(=O)N[C@@H]1C(=O)N2C(C(=O)[O-])=C(C[N+]3(C)CCCC3)CS[C@H]12)c1csc(N)n1 [Cefepime] + COc1ccc(C[C@H](N)C(=O)N[C@H]2[C@@H](O)[C@H](n3cnc4c(N(C)C)ncnc43)O[C@@H]2CO)cc1 [Puromycin]
Conditions | Bliss interaction score
B. subtilis 168 | 0.0941
S. aureus DSM 20231 [1] | 0.0605
S. aureus Newman [2] | -0.0741
S. pneumoniae D39V [3] | 0.132

Conditions | fitness
S. aureus DSM 20231 [4], first compound 0.125 µg/mL, partner 0.39 µg/mL | 0.867
S. aureus DSM 20231 [4], first compound 0.125 µg/mL, partner 0.78 µg/mL | ≥ 1
S. aureus DSM 20231 [4], first compound 0.125 µg/mL, partner 1.56 µg/mL | 0.965
S. aureus DSM 20231 [4], first compound 0.25 µg/mL, partner 0.39 µg/mL | 0.932
S. aureus DSM 20231 [4], first compound 0.25 µg/mL, partner 0.78 µg/mL | 0.951
S. aureus DSM 20231 [4], first compound 0.25 µg/mL, partner 1.56 µg/mL | 0.924
S. aureus DSM 20231 [4], first compound 0.5 µg/mL, partner 0.78 µg/mL | 0.952
S. aureus DSM 20231 [4], first compound 0.5 µg/mL, partner 1.56 µg/mL | 0.907
S. aureus Newman [5], first compound 0.125 µg/mL, partner 0.39 µg/mL | 0.898
S. aureus Newman [5], first compound 0.125 µg/mL, partner 0.78 µg/mL | 0.94
S. aureus Newman [5], first compound 0.125 µg/mL, partner 1.56 µg/mL | 0.9
S. aureus Newman [5], first compound 0.25 µg/mL, partner 0.39 µg/mL | 0.831
S. aureus Newman [5], first compound 0.25 µg/mL, partner 0.78 µg/mL | 0.865
S. aureus Newman [5], first compound 0.25 µg/mL, partner 1.56 µg/mL | 0.865
S. aureus Newman [5], first compound 0.5 µg/mL, partner 0.39 µg/mL | 0.728
S. aureus Newman [5], first compound 0.5 µg/mL, partner 0.78 µg/mL | 0.764
S. aureus Newman [5], first compound 0.5 µg/mL, partner 1.56 µg/mL | 0.775
S. pneumoniae D39V [6], first compound 0.007 µg/mL, partner 1 µg/mL | ≥ 1
S. pneumoniae D39V [6], first compound 0.007 µg/mL, partner 2 µg/mL | 0.993
S. pneumoniae D39V [6], first compound 0.007 µg/mL, partner 4 µg/mL | 0.873
S. pneumoniae D39V [6], first compound 0.014 µg/mL, partner 1 µg/mL | ≥ 1
S. pneumoniae D39V [6], first compound 0.014 µg/mL, partner 2 µg/mL | ≥ 1
S. pneumoniae D39V [6], first compound 0.014 µg/mL, partner 4 µg/mL | 0.876
S. pneumoniae D39V [6], first compound 0.028 µg/mL, partner 1 µg/mL | 0.961
S. pneumoniae D39V [6], first compound 0.028 µg/mL, partner 2 µg/mL | 0.944
S. pneumoniae D39V [6], first compound 0.028 µg/mL, partner 4 µg/mL | 0.771

fitness, one replicate
Conditions | first compound 0.0078 µg/mL | first compound 0.0155 µg/mL | first compound 0.031 µg/mL | first compound 0.125 µg/mL | first compound 0.25 µg/mL | first compound 0.5 µg/mL
S. aureus DSM 20231 [4], partner 3.12 µg/mL | – | – | – | 0.956 | 0.911 | 0.871
S. aureus DSM 20231 [4], partner 6.24 µg/mL | – | – | – | 0.781 | 0.857 | 0.716
S. pneumoniae D39V [6], partner 1 µg/mL | 0.979 | 0.896 | 0.42 | – | – | –
S. pneumoniae D39V [6], partner 2 µg/mL | 0.927 | 0.881 | 0.449 | – | – | –
S. pneumoniae D39V [6], partner 4 µg/mL | 0.868 | 0.845 | 0.314 | – | – | –
